Measured values reported in ChEMBL document CHEMBL1201862, “PubChem BioAssay data set” (2004).
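1) Cells in 96-well plates. 2) Compound, 48 h, 5 concentrations. 3) Linear interpolation between surrounding doses. 4) Unreached endpoint = highest concentration. At the GI50, growth is halved.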 Active and inactive are the calls of the source. Rule as the data show it: active = GI50 up to about 1.1 µM and inactive = higher.

Experiments:
Assay in all cases: NCI anticancer screen, dose series, 48 h
NCI-H460 = tested on: NCI-H460
Hs-578T = tested on: Hs-578T
TK-10 = tested on: TK-10
SK-OV-3 = tested on: SK-OV-3
KM12 = tested on: KM12
OVCAR-5 = tested on: OVCAR-5
SF-539 = tested on: SF-539
HOP-62 = tested on: HOP-62
CAKI-1 = tested on: CAKI-1
MCF7 = tested on: MCF7
COLO 205 = tested on: COLO 205
HOP-92 = tested on: HOP-92
CCRF-CEM = tested on: CCRF-CEM
EKVX = tested on: EKVX
NCI-H23 = tested on: NCI-H23
RXF 393 = tested on: RXF 393
HT-29 = tested on: HT-29
K562 = tested on: K562
Malme-3M = tested on: Malme-3M
LOX IMVI = tested on: LOX IMVI

SMILES | GI50 (NCI-H460) | GI50 (Hs-578T) | GI50 (TK-10) | GI50 (SK-OV-3) | GI50 (KM12) | GI50 (OVCAR-5) | GI50 (SF-539) | GI50 (HOP-62) | GI50 (CAKI-1) | GI50 (MCF7) | GI50 (COLO 205) | GI50 (HOP-92) | GI50 (CCRF-CEM) | GI50 (EKVX) | GI50 (NCI-H23) | GI50 (RXF 393) | GI50 (HT-29) | GI50 (K562) | GI50 (Malme-3M) | GI50 (LOX IMVI)
CC1=CC(=O)/C(=C/NC(N)=S)C(=O)O1 | > 100 µM (inactive) | > 100 µM (inactive) | 10.1 µM (inactive) | 43.2 µM (inactive) | > 100 µM (inactive) | > 100 µM (inactive) | > 100 µM (inactive) | 97.5 µM (inactive) | > 100 µM (inactive) | > 100 µM (inactive) | > 100 µM (inactive) | 15.3 µM (inactive) | 28.2 µM (inactive) | > 100 µM (inactive) | > 100 µM (inactive) | 1.05 µM (active) |  |  |  | 
O=C(CC(=O)N1N=C(N(c2ccccc2)c2ccccc2)CC1c1ccccc1)Nc1cccc(Cl)c1 (stereo unspecified) | > 100 µM (inactive) | > 100 µM (inactive) | > 100 µM (inactive) | > 100 µM (inactive) | > 100 µM (inactive) | > 100 µM (inactive) | > 100 µM (inactive) | > 100 µM (inactive) | > 100 µM (inactive) | > 100 µM (inactive) | > 100 µM (inactive) | > 100 µM (inactive) | > 100 µM (inactive) | > 100 µM (inactive) | > 100 µM (inactive) | > 100 µM (inactive) | > 100 µM (inactive) | > 100 µM (inactive) |  | 
COc1ccc(C[C@@H]2CN(C(=O)c3ccccc3)[C@H](Cc3ccc(O)cc3)CN2C(=O)c2ccccc2)cc1Br | > 100 µM (inactive) | > 100 µM (inactive) | > 100 µM (inactive) | > 100 µM (inactive) | > 100 µM (inactive) | > 100 µM (inactive) | > 100 µM (inactive) | > 100 µM (inactive) | > 100 µM (inactive) | > 100 µM (inactive) | > 100 µM (inactive) | > 100 µM (inactive) | > 100 µM (inactive) | > 100 µM (inactive) | > 100 µM (inactive) |  | > 100 µM (inactive) | > 100 µM (inactive) | > 100 µM (inactive) | > 100 µM (inactive)
CC1OC2OC3C(OCC(O)C3O)OC(=O)[C@]34CCC(C)(C)CC3C3=CCC5[C@@]6(C)C[C@H](O)[C@H](OC7OC(CO)C(O)C(O)C7OC7OC(COC(=O)CC(C)(O)CC(=O)OC1C(O)C2O)C(O)C(O)C7O)[C@@](C)(CO)C6CC[C@@]5(C)[C@]3(C)CC4 (stereo partly specified) | 1.8 µM (inactive) | 1.79 µM (inactive) | 1.61 µM (inactive) | 1.56 µM (inactive) | 1.48 µM (inactive) | 1.61 µM (inactive) | 2.56 µM (inactive) | 1.44 µM (inactive) | 1.45 µM (inactive) | 4.46 µM (inactive) | 1.52 µM (inactive) | 1.54 µM (inactive) | 1.51 µM (inactive) |  | 1.64 µM (inactive) |  | 1.69 µM (inactive) |  |  | 1.61 µM (inactive)
COc1ccc(C/C=C(\C)CCO)cc1 | > 100 µM (inactive) | > 100 µM (inactive) | > 100 µM (inactive) | > 100 µM (inactive) | > 100 µM (inactive) | > 100 µM (inactive) | > 100 µM (inactive) | > 100 µM (inactive) | 38.5 µM (inactive) | > 100 µM (inactive) | > 100 µM (inactive) | > 100 µM (inactive) | > 100 µM (inactive) | > 100 µM (inactive) | > 100 µM (inactive) | > 100 µM (inactive) | > 100 µM (inactive) | > 100 µM (inactive) |  | > 100 µM (inactive)
COc1ccc2c(c1O)-c1c(OC)c(OC)cc3c1[C@H](C2)[N+](C)(C)CC3 | > 100 µM (inactive) | > 100 µM (inactive) | > 100 µM (inactive) | > 100 µM (inactive) | > 100 µM (inactive) | > 100 µM (inactive) | > 100 µM (inactive) |  | > 100 µM (inactive) | > 100 µM (inactive) | > 100 µM (inactive) | 13.2 µM (inactive) | > 100 µM (inactive) | > 100 µM (inactive) | > 100 µM (inactive) |  | > 100 µM (inactive) | 0.0409 µM (active) | > 100 µM (inactive) | > 100 µM (inactive)
CC(C)(C)NC(=O)C12C3C4C1C1C2C3C41C(=O)NC(C)(C)C (stereo unspecified) | > 100 µM (inactive) | 32.8 µM (inactive) | > 100 µM (inactive) |  | > 100 µM (inactive) | > 100 µM (inactive) | > 100 µM (inactive) | 58.9 µM (inactive) | > 100 µM (inactive) | > 100 µM (inactive) | > 100 µM (inactive) | 15.1 µM (inactive) | 26.4 µM (inactive) | > 100 µM (inactive) | > 100 µM (inactive) | 40.8 µM (inactive) | > 100 µM (inactive) | > 100 µM (inactive) |  | > 100 µM (inactive)
CCOc1ccc(NCc2cc(OC)c(OC)c(OC)c2)cc1 | 0.614 µM (active) | 1.11 µM (active) |  | 1.17 µM (inactive) | 0.319 µM (active) |  | 0.562 µM (active) | 0.675 µM (active) |  | 0.455 µM (active) | 0.495 µM (active) | 6.04 µM (inactive) |  | 17.5 µM (inactive) | 1.96 µM (inactive) |  | 0.407 µM (active) | 0.269 µM (active) |  | 0.918 µM (active)
Nc1nc(O)c(Br)c(-c2cccc([N+](=O)[O-])c2)n1 | > 81.8 µM (inactive) | > 100 µM (inactive) | > 100 µM (inactive) | > 61.9 µM (inactive) | > 100 µM (inactive) | > 69.8 µM (inactive) | > 58.1 µM (inactive) | > 100 µM (inactive) | 58.5 µM (inactive) | > 49.2 µM (inactive) | > 100 µM (inactive) | > 76 µM (inactive) | > 100 µM (inactive) | > 100 µM (inactive) | 40.9 µM (inactive) | > 100 µM (inactive) | > 100 µM (inactive) | > 91.4 µM (inactive) |  | > 100 µM (inactive)
C[n+]1c2ccccc2c(N=[N+]=[N-])c2ccccc21 | 4.26 µM (inactive) | > 10 µM (inactive) | 6.97 µM (inactive) | > 10 µM (inactive) | > 10 µM (inactive) | > 10 µM (inactive) | 4.83 µM (inactive) | > 10 µM (inactive) | > 10 µM (inactive) | 6.95 µM (inactive) | 4.29 µM (inactive) |  | 3.33 µM (inactive) | 8.32 µM (inactive) | 4.22 µM (inactive) | > 10 µM (inactive) | 3.93 µM (inactive) | 5.82 µM (inactive) | 5.42 µM (inactive) | 2.94 µM (inactive)
COc1cc2c3c(c1OC)C(=O)C(=O)C1=C3N(CCC1)CC2 | 12.2 µM (inactive) | 2.72 µM (inactive) | 70 µM (inactive) |  | 17 µM (inactive) | 52.2 µM (inactive) | 29.6 µM (inactive) | 30.5 µM (inactive) | 32.4 µM (inactive) | 14.9 µM (inactive) | 10.4 µM (inactive) | 19.4 µM (inactive) | 20.3 µM (inactive) | 17.5 µM (inactive) | 20.6 µM (inactive) | 26.6 µM (inactive) | 24.3 µM (inactive) | 5.7 µM (inactive) |  | 26.7 µM (inactive)
C=CC(C)(C)C(=C)C(=O)N(C)c1ccccc1I | > 100 µM (inactive) | 57.9 µM (inactive) | > 100 µM (inactive) | > 100 µM (inactive) | > 100 µM (inactive) | > 100 µM (inactive) |  | > 100 µM (inactive) | > 100 µM (inactive) | > 100 µM (inactive) | > 100 µM (inactive) | > 100 µM (inactive) | > 100 µM (inactive) | > 100 µM (inactive) | 84.1 µM (inactive) | > 100 µM (inactive) | > 100 µM (inactive) | > 100 µM (inactive) |  | > 100 µM (inactive)
NS(=O)(=O)c1ccc(Nc2c3ccccc3nc3c(C(=O)NCCCN(CCO)CCO)cccc23)cc1 | 15.7 µM (inactive) | 19.6 µM (inactive) | 36.6 µM (inactive) | 27.2 µM (inactive) | 16.7 µM (inactive) | 24.1 µM (inactive) |  | 24.8 µM (inactive) | > 100 µM (inactive) | 4.8 µM (inactive) | 13 µM (inactive) | 26.3 µM (inactive) | 8.41 µM (inactive) | 61.5 µM (inactive) | 23.4 µM (inactive) |  | 25.6 µM (inactive) | 18.7 µM (inactive) | 20.4 µM (inactive) | 18.8 µM (inactive)
COc1ccc(CCCCl)c(C2=NCCc3ccccc32)c1 | 36.4 µM (inactive) | 20.6 µM (inactive) | > 100 µM (inactive) | > 100 µM (inactive) | 27.4 µM (inactive) | > 100 µM (inactive) | 35.8 µM (inactive) | 33.4 µM (inactive) | > 100 µM (inactive) | 38.2 µM (inactive) | 17.3 µM (inactive) | 71.1 µM (inactive) | 53.6 µM (inactive) | 37.7 µM (inactive) | 11.1 µM (inactive) | 56.9 µM (inactive) | 19.2 µM (inactive) | 14.6 µM (inactive) |  | 
Cc1cc2c3c([nH]c2c2ccnc(C)c12)CCCC3 | 1.94 µM (inactive) | 1.92 µM (inactive) | 2.33 µM (inactive) | 1.85 µM (inactive) | 2.7 µM (inactive) | 3.65 µM (inactive) | 1.85 µM (inactive) | 1.79 µM (inactive) |  | 1.43 µM (inactive) | 1.69 µM (inactive) | 2.6 µM (inactive) | 2.5 µM (inactive) | 2.07 µM (inactive) | 2.86 µM (inactive) |  | 2.46 µM (inactive) | 2.07 µM (inactive) | 1.29 µM (inactive) | 1.96 µM (inactive)
